Read-outs that look alike come from different tables or passages of the source. One block for each molecule: values may come before it.
Columns and labels:
[1] = tested on: migraine patients; assay: Phase 3 placebo- and active-controlled trial, acute treatment of moderate and severe migraine (Example 11); assay type: in vivo, human
[2] = Dissolution testing of monolayer meloxicam/rizatriptan tablet in acidic medium (Example 4); assay type: physicochemical; details: 0.01 N HCl
Source text: The inclusion complex was the same as the inclusion complex of Example 3.

[3] = Method: The effect of varying amounts of potassium carbonate (K2CO3) and sodium bicarbonate (NaHCO3) on the pH of acidic media was tested. The acidic media was chosen to simulate gastric conditions. K2CO3 or NaHCO3 was added to 50 mL of a 0.01 N HCl solution (pH 2). The pH of the solution was measured after addition of the K2CO3 or NaHCO3. Deionized water (240 mL) was then added to the mixture and pH was measured again.
[4] = human beings, 15 mg intramuscular dose; cited from earlier work
[5] = monolayer tablet of Example 4, 0 min, 75 RPM, 37° C
[6] = monolayer tablet of Example 4, 15 min
[7] = monolayer tablet of Example 4, 30 min
[8] = monolayer tablet of Example 4, 45 min
[9] = monolayer tablet of Example 4, 60 min
[10] = monolayer tablet of Example 4, 90 min
[11] = monolayer tablet of Example 4, 120 min

Dizziness, % of subjects ([1]; in vivo): 2.1%
Dizziness, number of subjects ([1]; in vivo): 9
Nausea, % of subjects ([1]; in vivo): 4.8%
Nausea, number of subjects ([1]; in vivo): 21
Somnolence, % of subjects ([1]; in vivo): 2.1%
Somnolence, number of subjects ([1]; in vivo): 9
percent dissolved [2, 5]: 0%
percent dissolved [2, 6]: 89%
percent dissolved [2, 7]: 102%
percent dissolved [2, 8]: 103%
percent dissolved [2, 9]: 103%
percent dissolved [2, 10]: 103%
percent dissolved [2, 11]: 103%
Structure (SMILES): CN(C)CCc1c[nH]c2ccc(Cn3cncn3)cc12 [Rizatriptan]
patients experiencing relapse of pain ([1]; 48-hour period after dosing): 45.2%
percentage of patients with sustained pain freedom ([1]; 2 hours to 48 hours): 8.8%
probability of experiencing pain relief ([1]; 24 hours after taking): approximately 60%
Any Treatment-Emergent Adverse Event, number of subjects ([1]; in vivo): 67
median time to pain relief ([1]; in vivo): 4 h

pH ([3]; 300 mg added to 50 mL 0.01 N HCl): 5.90
pH ([3]; 750 mg added to 50 mL 0.01 N HCl): 8.30
pH ([3]; 1000 mg, 0.01 N HCl + 240 mL water): 8.60
Structure (SMILES): O=C([O-])O.[Na+] [NaHCO3, sodium bicarbonate]

percent dissolved [2, 5]: 0%
percent dissolved [2, 6]: 79%
percent dissolved [2, 7]: 92%
percent dissolved [2, 8]: 93%
percent dissolved [2, 9]: 93%
percent dissolved [2, 10]: 93%
percent dissolved [2, 11]: 94%
Structure (SMILES): Cc1cnc(NC(=O)C2=C(O)c3ccccc3S(=O)(=O)N2C)s1 [Meloxicam]
AUC0-24 of meloxicam [4]: about 27 μg·hr/mL

— patent US11806354B2 (priority 2017, dated 2023)
